Data on 39 compounds can be found in US20200308170A1, “KRAS G12C INHIBITORS” (Mirati Therapeutics, Inc., priority 2017, published 2020).

Sequence of KRas G12C (P01116 1-188 isoform P01116-2 G12C): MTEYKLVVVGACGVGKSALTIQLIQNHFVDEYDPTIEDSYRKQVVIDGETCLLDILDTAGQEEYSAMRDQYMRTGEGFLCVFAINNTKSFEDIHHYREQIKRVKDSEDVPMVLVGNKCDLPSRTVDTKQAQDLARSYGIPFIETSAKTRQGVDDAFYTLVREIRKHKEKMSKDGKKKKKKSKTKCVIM

The assay has as its target KRas G12C (Homo sapiens, UniProt P01116, G12C). Briefly: Inhibition of KRas G12C in NCI-H358 cells measured by phosphorylated ERK (Phospho-ERK). The format is cell-based. Conditions: 3 hours, 4 parameter fit, read-out: IC50 (pERK(Thr202/Tyr204) signal normalized with GAPDH). The protocol:
Cells were plated in poly-D-Lysine coated 96-well plates at a concentration of 50,000 cells/well and allowed to attach for 8-12 hours. Diluted compounds were then added at a final concentration of 0.5% DMSO. After 3 hours, the medium was removed, 150 μL of 4% formaldehyde was added and the plates were incubated for 20 minutes. The plates were washed with PBS, and permeabilized using 150 μL of ice cold 100% methanol for 10 minutes. Non-specific antibody binding to the plates was blocked using 100 μL Licor Blocking Buffer (Li-Cor Biotechnology, Lincoln Nebr.) for 1 hour at room temperature. Positive control samples and samples lacking cells were parallel processed with test samples as standards.
The amount Phospho-ERK was determined using an antibody specific for the phosphorylated form of ERK and compared to the amount of GAPDH. […] The plates were incubated for 2 hours at room temperature. The plates were washed with PBS+0.05% Tween 20.
Secondary antibodies used to visualize primary antibodies were added as follows: Anti-rabbit-680 diluted 1:1000 and Anti-mouse-800 diluted 1:1000 in Licor Block+0.05% Tween 20 and incubated for 1 hour at room temperature. The plates were washed with PBS+0.05% Tween 20. A 100 μL aliquot of PBS was added to each well and the plates were read on a LICOR AERIUS plate reader.
The pERK(Thr202/Tyr204) signal was normalized with the GAPDH signal and percent of DMSO control values were calculated. IC50 values were generated using a 4 parameter fit of the dose response curve.
For the compound `C=C(F)C(=O)N1CCN(c2nc(OCCc3nccn3C)nc3c2CCN(c2cccc4ccc(F)c(Cl)c24)C3)C[C@@H]1CC#N` [Example 191], the IC50 lay within 0.0001 to 1 µM.

For `C=C(F)C(=O)N1CCN(c2nc(OCC34CCCN3CCC4)nc3c2CCN(c2cccc(Cl)c2C(F)(F)F)C3)C[C@@H]1CC#N` [Example 141], the IC50 lay in the range of 0.0001 to 1 µM.

On to `CN1CC(F)(F)C[C@H]1COc1nc2c(c(N3CCN(C(=O)/C=C/CN4CC(F)C4)[C@@H](CC#N)C3)n1)CCN(c1cccc3cccc(Cl)c13)C2` [Example 57, 2-((S)-4-(7-(8-chloronaphthalen-1-yl)-2-(((S)-4,4-difluoro-1-methylpyrrolidin-2-yl)methoxy)-5,6,7,8-tetrahydropyrido[3,4-d]pyrimidin-4-yl)-1-((E)-4-(3-fluoroazetidin-1-yl)but-2-enoyl)piperazin-2-yl)acetonitrile], for which the IC50 is 1 to 10 µM.

For `C=C(F)C(=O)N1CCN(c2nc(OC[C@@H]3COCCN3Cc3ccccc3)nc3c2CCN(c2cccc4ccc(F)c(Cl)c24)C3)C[C@@H]1CC#N` [Example 167], the IC50 lay within 0.0001 to 1 µM.

Regarding `C=C(F)C(=O)N1CCN(c2nc(OCC3COCCC34CN(C)C4)nc3c2CCN(c2cccc4ccc(F)c(Cl)c24)C3)C[C@@H]1CC#N` (stereo partly drawn) [Example 161], the IC50 fell in the range of 0.0001 to 1 µM.

Turning to `C=C(F)C(=O)N1CCN(c2nc(OC[C@@H]3CCCN3C)nc3c2CCN(c2cccc4c2CCC4)C3)C[C@@H]1CC#N` [Example 135], the IC50 lay in the range of 0.0001 to 1 µM.

Regarding `N#CC[C@H]1CN(c2nc(OCC34CCCN3CCC4)nc3c2CCN(c2cccc4ccc(F)c(Cl)c24)C3)CCN1C(=O)/C(F)=C/CF` [Example 207, (S, Z)-2-(4-(7-(8-chloro-7-fluoronaphthalen-1-yl)-2-((tetrahydro-1H-pyrrolizin-7a(5H)-yl)methoxy)-5,6,7,8-tetrahydropyrido[3,4-d]pyrimidin-4-yl)-1-(2,4-difluorobut-2-enoyl)piperazin-2-yl)acetonitrile], the IC50 is 0.0001 to 1 µM.

With `COC/C=C(\F)C(=O)N1CCN(c2nc(OCC34CCCN3CCC4)nc3c2CCN(c2cccc4ccc(F)c(Cl)c24)C3)C[C@@H]1CC#N` [Example 206, (S, Z)-2-(4-(7-(8-chloro-7-fluoronaphthalen-1-yl)-2-((tetrahydro-1H-pyrrolizin-7a(5H)-yl)methoxy)-5,6,7,8-tetrahydropyrido[3,4-d]pyrimidin-4-yl)-1-(2-fluoro-4-methoxybut-2-enoyl)piperazin-2-yl)acetonitrile], the IC50 was 0.0001 to 1 µM.

As to `C=C(F)C(=O)N1CCN(c2nc(OC3CN(C)C3)nc3c2CCN(c2cccc4ccc(F)c(Cl)c24)C3)C[C@@H]1CC#N` [Example 168], the IC50 is 1 to 10 µM.

In the case of `C=C(F)C(=O)N1CCN(c2nc(OCC3COC3)nc3c2CCN(c2cccc4ccc(F)c(Cl)c24)C3)C[C@@H]1CC#N` [Example 197], the IC50 lay within 0.0001 to 1 µM.

For `C=C(F)C(=O)N1CCN(c2nc(OC[C@@H]3CCCN3CC)nc3c2CCN(c2cccc4ccc(F)c(Cl)c24)C3)C[C@@H]1CC#N` [Example 185], the IC50 was in the range of 0.0001 to 1 µM.

`C=C(F)C(=O)N1CCN(c2nc(OC[C@@H]3CCCN3C3CCC3)nc3c2CCN(c2cccc4ccc(F)c(Cl)c24)C3)C[C@@H]1CC#N` [Example 196]: the IC50 is 0.0001 to 1 µM.

On to `C=C(F)C(=O)N1CCN(c2nc(OCC34CCCCN3CCC4)nc3c2CCN(c2cccc4ccc(F)c(Cl)c24)C3)C[C@@H]1CC#N` (stereo partly drawn) [Example 151], for which the IC50 is 0.0001 to 1 µM.

For the compound `C=C(F)C(=O)N1CCN(c2nc(OCC34CCCN3CCC4)nc3c2CCN(c2cccc4ccccc24)C3)C[C@@H]1CC#N` [Example 146], the IC50 lay in the range of 0.0001 to 1 µM.

As to `C=C(F)C(=O)N1CCN(c2nc(OCCN3C[C@@H]4CC3CO4)nc3c2CCN(c2cccc4ccc(F)c(Cl)c24)C3)C[C@@H]1CC#N` [Example 193], the IC50 was 0.0001 to 1 µM.

`C=C(F)C(=O)N1CCN(c2nc(O[C@H]3CCC[C@@H]3N(C)C)nc3c2CCN(c2cccc4ccc(F)c(Cl)c24)C3)C[C@@H]1CC#N` [Example 153]: the IC50 lay in the range of 1 to 10 µM.

Take `C=C(F)C(=O)N1CCN(c2nc(OCC3CCC(C)(C)N3C)nc3c2CCN(c2cccc4ccc(F)c(Cl)c24)C3)C[C@@H]1CC#N` (stereo partly drawn) [Example 199]: the IC50 was in the range of 0.0001 to 1 µM.

On to `C=C(F)C(=O)N1CCN(c2nc(OC[C@@H]3CC4CCN3C4)nc3c2CCN(c2cccc4ccc(F)c(Cl)c24)C3)C[C@@H]1CC#N` (stereo partly drawn) [Example 180], for which the IC50 fell in the range of 0.0001 to 1 µM.

For the compound `C=C(F)C(=O)N1CCN(c2nc(OC[C@@H]3C[C@@H](OC)CN3C)nc3c2CCN(c2cccc4ccc(F)c(Cl)c24)C3)C[C@@H]1CC#N` [Example 170], the IC50 lay in the range of 0.0001 to 1 µM.

Take `C=C(F)C(=O)N1CCN(c2nc(OCCN(C)CC(F)(F)F)nc3c2CCN(c2cccc4ccc(F)c(Cl)c24)C3)C[C@@H]1CC#N` [Example 148, (S)-2-(4-(7-(8-chloro-7-fluoronaphthalen-1-yl)-2-(2-(methyl(2,2,2-trifluoroethyl)amino)ethoxy)-5,6,7,8-tetrahydropyrido[3,4-d]pyrimidin-4-yl)-1-(2-fluoroacryloyl)piperazin-2-yl)acetonitrile]: the IC50 is 1 to 10 µM.

Regarding `C=C(F)C(=O)N1CCN(c2nc(OC[C@@H]3CCCN3C)nc3c2CCN(c2cccc4ccc(Cl)c(Cl)c24)C3)C[C@@H]1CC#N` [Example 137], the IC50 fell in the range of 1 to 10 µM.

Take `C=C(F)C(=O)N1CCN(c2nc(OC[C@@H]3C[C@@H](OC)CN3C(C)C)nc3c2CCN(c2cccc4ccc(F)c(Cl)c24)C3)C[C@@H]1CC#N` [Example 181]: the IC50 lay within 0.0001 to 1 µM.

Consider `C=C(F)C(=O)N1CCN(c2nc(OCC3CCOC3)nc3c2CCN(c2cccc4ccc(F)c(Cl)c24)C3)C[C@@H]1CC#N` (stereo partly drawn) [Example 189], for which the IC50 was 1 to 10 µM.

In the case of `C=C(F)C(=O)N1CCN(c2nc(OCC34COCN3COC4)nc3c2CCN(c2cccc4ccc(F)c(Cl)c24)C3)C[C@@H]1CC#N` [Example 155], the IC50 is 0.0001 to 1 µM.

For `C=C(F)C(=O)N1CCN(c2nc(OC[C@@H]3CCCN3C(C)C)nc3c2CCN(c2cccc4ccc(F)c(Cl)c24)C3)C[C@@H]1CC#N` [Example 147, 2-((S)-4-(7-(8-chloro-7-fluoronaphthalen-1-yl)-2-(((S)-1-isopropylpyrrolidin-2-yl)methoxy)-5,6,7,8-tetrahydropyrido[3,4-d]pyrimidin-4-yl)-1-(2-fluoroacryloyl)piperazin-2-yl)acetonitrile], the IC50 fell in the range of 0.0001 to 1 µM.

On to `C=C(F)C(=O)N1CCN(c2nc(OCC(C)C(F)F)nc3c2CCN(c2cccc4ccc(F)c(Cl)c24)C3)C[C@@H]1CC#N` (stereo partly drawn) [Example 192], for which the IC50 is 1 to 10 µM.

Regarding `C=C(F)C(=O)N1CCN(c2nc(OCCN(CC)CC)nc3c2CCN(c2cccc4ccc(F)c(Cl)c24)C3)C[C@@H]1CC#N` [Example 159], the IC50 was in the range of 0.0001 to 1 µM.

`C=C(F)C(=O)N1CCN(c2nc(OC[C@@H]3C[C@@H](F)CN3C)nc3c2CCN(c2cccc4ccc(F)c(Cl)c24)C3)C[C@@H]1CC#N` [Example 172]: the IC50 lay within 0.0001 to 1 µM.

Consider `C=C(F)C(=O)N1CCN(c2nc(OC[C@@H]3CCCN3C)nc3c2CCN(c2cccc4ccc(F)c(F)c24)C3)C[C@@H]1CC#N` [Example 136], for which the IC50 was in the range of 0.0001 to 1 µM.

For `C=C(F)C(=O)N1CCN(c2nc(OC3CN4CCC3CC4)nc3c2CCN(c2cccc4ccc(F)c(Cl)c24)C3)C[C@@H]1CC#N` (stereo partly drawn) [Example 154], the IC50 fell in the range of 1 to 10 µM.

In the case of `C=C(F)C(=O)N1CCN(c2nc(OCC34CCCN3CC(F)(F)C4)nc3c2CCN(c2cccc4ccc(F)c(Cl)c24)C3)C[C@@H]1CC#N` (stereo partly drawn) [Example 174], the IC50 lay within 0.0001 to 1 µM.

On to `C=C(F)C(=O)N1CCN(c2nc(OCCN3CCCCCC3)nc3c2CCN(c2cccc4ccc(F)c(Cl)c24)C3)C[C@@H]1CC#N` [Example 165], for which the IC50 lay in the range of 0.0001 to 1 µM.

As to `C=C(F)C(=O)N1CCN(c2nc(OC[C@@H]3CC(F)(F)CN3)nc3c2CCN(c2cccc4ccc(F)c(Cl)c24)C3)C[C@@H]1CC#N` [Example 208, 2-((S)-4-(7-(8-chloro-7-fluoronaphthalen-1-yl)-2-(((S)-4,4-difluoropyrrolidin-2-yl)methoxy)-5,6,7,8-tetrahydropyrido[3,4-d]pyrimidin-4-yl)-1-(2-fluoroacryloyl)piperazin-2-yl)acetonitrile], the IC50 fell in the range of 0.0001 to 1 µM.

Take `C=C(F)C(=O)N1CCN(c2nc(OC[C@@H]3[C@@H]4CC[C@@H](C4)N3C)nc3c2CCN(c2cccc4ccc(F)c(Cl)c24)C3)C[C@@H]1CC#N` [Example 190]: the IC50 was in the range of 0.0001 to 1 µM.

Turning to `C=C(F)C(=O)N1CCN(c2nc(OC3CC4(C3)CN(C)C4)nc3c2CCN(c2cccc4ccc(F)c(Cl)c24)C3)C[C@@H]1CC#N` [Example 149], the IC50 was in the range of 1 to 10 µM.

On to `C=C(F)C(=O)N1CCN(c2nc(OCC34CCCN3C(=O)CC4)nc3c2CCN(c2cccc4ccc(F)c(Cl)c24)C3)C[C@@H]1CC#N` (stereo partly drawn) [Example 145], for which the IC50 fell in the range of 1 to 10 µM.

As for `C=C(F)C(=O)N1CCN(c2nc(OCCn3ccnc3)nc3c2CCN(c2cccc4ccc(F)c(Cl)c24)C3)C[C@@H]1CC#N` [Example 163], the IC50 lay in the range of 1 to 10 µM.

Regarding `C=C(F)C(=O)N1CCN(c2nc(O[C@@H]3CCCC[C@H]3N(C)C)nc3c2CCN(c2cccc4ccc(F)c(Cl)c24)C3)C[C@@H]1CC#N` [Example 182], the IC50 fell in the range of 1 to 10 µM.

Consider `C=C(F)C(=O)N1CCN(c2nc(OCC34CCCN3C[C@H](F)C4)nc3c2CCN(c2cccc4ccc(F)c(Cl)c24)C3)C[C@@H]1CC#N` (stereo partly drawn) [Example 156], for which the IC50 lay in the range of 0.0001 to 1 µM.
